Measurements: publication PMC7060258 (Scientific Reports, 2020)

Key:
rat = conditions: cited from earlier work
[1] = test system: murine neuroblastoma Neuro2a cells; assay: Intracellular ROS formation level (H2DCF-DA); format: cell-based; conditions: 6-OHDA 25 µM alone
Protocol: We estimated whether rHCIQ2c1 is able to inhibit reactive oxygen species (ROS) production. After incubation of Neuro2a cells with rHCIQ2c1 (up to 10 µM) and 6-OHDA (25 µM), ROS content was evaluated by measurement of dichlorofluorescin intensity.
The intracellular ROS level was detected using 2,7-dichlordihydrofluorescein diacetate (H2DCF-DA) solution (Molecular Probes, final concentration 10 µM). In this study, mouse neuroblastoma Neuro2a cells seeded on 96-well plates were washed twice with serum-free DMEM and thereafter incubated for 1 h in serum-free MEM medium in the presence of compounds in concentrations from 10 pM to 10 µM. Cell were treated with 6-OHDA (25 μM) for 30 min at 37 °C with 5% CO2. Followed by treatment with 6-OHDA, the cells were washed once with PBS. After washing with serum-free DMEM medium, the cells were loaded with H2DCF-DA for 30 min. The intensity of dichlorofluorescin fluorescence was measured with plate reader PHERAstar FS (BMG Labtech, Germany) at λex = 485 nm and λem = 518 nm. The cytoprotective effect of peptides and the increase in cell viability under their action was calculated as a percentage, taking the cell viability treated with 6-OHDA as 100%.

SMILES	Effect on MPTP-induced neurodegeneration and rat behavioral disturbances (rat)	ROS level [1]
Nc1ccncc1 [4-aminopyridine]	suppresses MPTP-induced neurodegeneration and rat behavioral disturbances	
NCCc1cc(O)c(O)cc1O [6-OHDA, 6-hydroxydopamine, reference compound]		highest ROS level
